{
  "source": "paper PMC3169403",
  "about": "(Acta Crystallographica Section F: Structural Biology and …, 2011)",
  "target": "T1, BpGCDH; glutaryl-CoA dehydrogenase from B. pseudomallei (Burkholderia pseudomallei, UniProt Q3JP94)",
  "T1 construct": "gene BURPS1710b_3237",
  "T1 sequence (Q3JP94 1-395 limits assumed)": "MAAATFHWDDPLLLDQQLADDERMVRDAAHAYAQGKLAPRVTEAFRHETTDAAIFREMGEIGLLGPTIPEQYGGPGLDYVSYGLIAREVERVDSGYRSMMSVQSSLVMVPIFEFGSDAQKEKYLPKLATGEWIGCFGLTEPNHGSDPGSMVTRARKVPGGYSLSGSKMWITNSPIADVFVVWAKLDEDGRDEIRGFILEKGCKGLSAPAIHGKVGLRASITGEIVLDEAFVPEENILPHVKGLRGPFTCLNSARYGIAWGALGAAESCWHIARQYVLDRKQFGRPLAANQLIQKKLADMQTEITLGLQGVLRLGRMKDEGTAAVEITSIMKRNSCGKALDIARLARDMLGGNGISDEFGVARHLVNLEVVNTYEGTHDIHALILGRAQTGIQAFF",
  "details": "apo crystal without FAD, pH 7.5, individual soak 10-25 mM",
  "note": "Read-outs that look alike come from different tables or passages of the source.",
  "data": [
    {"smiles": "CN1CCN(C)c2cc(CN)ccc21", "note": "[FOL680, (1,4-dimethyl-1,2,3,4-tetrahydroquinoxalin-6-yl)methylamine]", "values": [
      {"measurement": "X-ray crystal structure (fragment soak)", "setting": "flavin site of FAD, second molecule in substrate site of one protomer, three per tetramer", "value": "FOL680 occupies the binding site for the flavin ring of the FAD cofactor"}
    ]},
    {"smiles": "CC(C)n1c(S(=O)(=O)O)nc2ccccc21", "note": "[FOL6421, 1-(1-methylethyl)-1H-benzimidazole-2-sulfonate]", "values": [
      {"measurement": "X-ray crystal structure (fragment soak)", "setting": "glutaryl (substrate) site, all four active sites, HEPES also modelled at tetramer interface", "value": "FOL6421 (PDB entry 3gnc) was observed bound in all four active sites of tetrameric BpGCDH"}
    ]},
    {"smiles": "COC(=O)c1cccs1", "note": "[FOL544]", "values": [
      {"measurement": "X-ray crystal structure (fragment soak)", "setting": "glutaryl (substrate) site, one active site per tetramer", "value": "FOL544 (methyl thiophene-2-carboxylate; PDB entry 3d6b)"}
    ]}
  ]
}
